In patent US11932609B1 (priority 2023, dated 2024) one finds melting point data, which are given here for eight molecules.

SMILES strings stand for the structures.

On to `CCOC(=O)C1=C(C)NC(Nc2ccc(Cl)c(C(F)(F)F)c2)=NC1c1ccc(F)cc1` (centres unmarked) [DHPM-KNV5, Ethyl 2-((4-chloro-3-(trifluoromethyl)phenyl)amino)-4-(4-fluorophenyl)-6-methyl-1,4-dihydropyrimidine-5-carboxylate], for which the melting point (in general, the temperature, or range, at which the solid turns liquid) was 176 to 177 °C.

`CCOC(=O)C1=C(C)NC(Nc2ccccc2I)=NC1c1ccc(F)cc1` (centres unmarked) [DHPM-KNV8, Ethyl 4-(4-fluorophenyl)-2-((2-iodophenyl)amino)-6-methyl-1,4-dihydropyrimidine-5-carboxylate] gave a melting point of 229 to 230 °C.

The molecule `CCOC(=O)C1=C(C)NC(Nc2ccccc2)=NC1c1ccc(F)cc1` (centres unmarked) [DHPM-KNV1, Ethyl 4-(4-fluorophenyl)-6-methyl-2-(phenylamino)-1,4-dihydropyrimidine-5-carboxylate] displayed a melting point of 92 to 93 °C.

Consider `CCOC(=O)C1=C(C)NC(Nc2ccc(C(F)(F)F)cc2OC)=NC1c1ccc(F)cc1` (centres unmarked) [DHPM-KNV9, Ethyl 4-(4-fluorophenyl)-2-((2-methoxy-4-(trifluoromethyl)phenyl)amino)-6-methyl-1,4-dihydropyrimidine-5-carboxylate], for which the melting point was 213 to 214 °C.

As for `CCOC(=O)C1=C(C)NC(Nc2ccc(C(C)C)cc2)=NC1c1ccc(F)cc1` (centres unmarked) [DHPM-KNV4, Ethyl 4-(4-fluorophenyl)-2-((4-isopropylphenyl)amino)-6-methyl-1,4-dihydropyrimidine-5-carboxylate], the melting point lay in the range of 125 to 126 °C.

`CCOC(=O)C1=C(C)NC(Nc2ccc(Br)cc2)=NC1c1ccc(F)cc1` (centres unmarked) [DHPM-KNV2, Ethyl 2-((4-bromophenyl)amino)-4-(4-fluorophenyl)-6-methyl-1,4-dihydropyrimidine-5-carboxylate]: the melting point lay within 120 to 121 °C.

Consider `CCOC(=O)C1=C(C)NC(Nc2ccc3ncsc3c2)=NC1c1ccc(F)cc1` (centres unmarked) [DHPM-KNV7, Ethyl 2-(benzo[d]thiazol-6-ylamino)-4-(4-fluorophenyl)-6-methyl-1,4-dihydropyrimidine-5-carboxylate], for which the melting point was 175 to 176 °C.

In the case of `CCOC(=O)C1=C(C)NC(Nc2ccc(Cl)cc2)=NC1c1ccc(F)cc1` (centres unmarked) [DHPM-KNV3, Ethyl 2-((4-chlorophenyl)amino)-4-(4-fluorophenyl)-6-methyl-1,4-dihydropyrimidine-5-carboxylate], the melting point fell in the range of 188 to 189 °C.
